Legend:
PBMCs [1] = assay: LPS-induced TNFα/IL-8 release in PBMC cells; format: cell-based; settings: Homo sapiens, LPS-stimulated PBMCs, IL-8, read-out: IC50 Values for Inhibition of Cytokine Release PBMCs IL-8
Procedure: Peripheral blood mononuclear cells (PBMCs) from healthy subjects are separated from whole blood using a density gradient (Lymphoprep, Axis-Shield Healthcare). The PBMCs are seeded in 96 well plates and treated with compounds at the desired concentration for 2 hours before addition of 1 ng/mL LPS (Escherichia Coli 0111:B4 from Sigma Aldrich) for 24 hours under normal tissue culture conditions (37° C., 5% CO2). The supernatant is harvested for determination of IL-8 and TNFα concentrations by sandwich ELISA (Duo-set, R&D systems) and read on the fluorescence microplate reader (Varioskan® Flash, ThermoFisher Scientific). The concentration at 50% inhibition (IC50) of IL-8 and TNFα production is calculated from the dose response curve.

GSK3α = GSK3α (Homo sapiens (Human), UniProt P49840); assay: GSK 3α enzyme inhibition (Method 2), Z-LYTE FRET; format: biochemical
Procedure: (§1) The enzyme inhibitory activities of compounds disclosed herein are determined by FRET using synthetic peptides labelled with both donor and acceptor fluorophores (Z-LYTE, Invitrogen Ltd., Paisley, UK).
The inhibitory activities of compounds of the invention against the GSK 3α enzyme isoform (Invitrogen), are evaluated by determining the level of activation/phosphorylation of the target peptide. The GSK3-α protein (500 ng/mL, 2.5 μL) is mixed with the test compound (2.5 μL at either 4 μg/mL, 0.4 μg/mL, 0.04 μg/mL, or 0.004 μg/mL) for 2 hr at RT. The FRET peptide (8 μM, 2.5 μL), which is a phosphorylation target for GSK3α, and ATP (40 μM, 2.5 μL) are then added to the enzyme/compound mixture and the resulting mixture incubated for 1 hr. Development reagent (protease, 5 μL) is added for 1 hr prior to detection in a fluorescence microplate reader (Varioskan® Flash, ThermoFisher Scientific).
(§2) In all cases, the site-specific protease cleaves non-phosphorylated peptide only and eliminates the FRET signal. Phosphorylation levels of each reaction are calculated using the ratio of coumarin emission (donor) over fluorescein emission (acceptor), for which high ratios indicate high phosphorylation and low ratios indicate low phosphorylation levels. The percentage inhibition of each reaction is calculated relative to non-inhibited control and the 50% inhibitory concentration (IC50 value) is then calculated from the concentration-response curve.
This method follows the same steps as Method 1 above, but utilises a shorter period of mixing of the test compound (105 minutes instead of 2 hours) with the GSK3-α protein.

p38 MAPKα = p38 MAPKα (Homo sapiens (Human), UniProt Q16539); assay: p38 MAPKα enzyme inhibition (Method 2), Z-LYTE FRET; format: biochemical
Procedure: as §1
The inhibitory activities of test compounds against the p38 MAPKα isoform (MAPK14: Invitrogen), are evaluated indirectly by determining the level of activation/phosphorylation of the down-stream molecule, MAPKAP-K2. The p38 MAPKα protein (80 ng/mL, 2.5 μL) is mixed with the test compound (2.5 μL of either 4 μg/mL, 0.4 μg/mL, 0.04 μg/mL or 0.004 μg/mL) for 2 hr at RT. […] The mixture is incubated for 1 hr at RT. Development reagent (protease, […]) is added for 1 hr prior to detection in a fluorescence microplate reader (Varioskan® Flash, ThermoFisher Scientific).
This method follows the same steps as Method 1 above, but utilises a higher concentration of the p38 MAPKα protein (2.5 μL of 200 ng/mL protein instead of 2.5 μL of 80 ng/mL protein) for mixing with the test compound.
as §2

PBMCs [2] = assay: IL-2 and IFN gamma release in CD3/CD28 stimulated PBMC cells; format: cell-based; settings: Homo sapiens
Procedure: PBMCs from healthy subjects are separated from whole blood using a density gradient (Lymphoprep, Axis-Shield Healthcare). Cells are added to a 96 well plate pre-coated with a mixture of CD3/CD38 monoclonal antibodies (0.3 μg/mL eBioscience and 3 μg/mL BD Pharmingen respectively). Compound at the desired concentration is then added to the wells and the plate left for 3 days under normal tissue culture conditions. Supernatants are harvested and IL-2 and IFN gamma release determined by Sandwich ELISA (Duo-set, R&D System). The IC50 is determined from the dose response curve.

Syk = Syk (Homo sapiens (Human), UniProt P43405); assay: Syk enzyme inhibition, Z-LYTE FRET; format: biochemical
Procedure: as §1
(§3) The inhibitory activities of compounds of the invention against c-Src and Syk enzymes (Invitrogen), are evaluated in a similar fashion to that described hereinabove. The relevant enzyme (3000 ng/mL or 2000 ng/mL respectively, 2.5 μL) is incubated with the test compound (either 4 μg/mL, 0.4 μg/mL, 0.04 μg/mL, or 0.004 μg/mL, 2.5 μL each) for 2 hr at RT. The FRET peptides (8 μM. 2.5 μL), and appropriate ATP solutions (2.5 μL, 800 μM for c-Src, and 60 μM ATP for Syk) are then added to the enzymes/compound mixtures and incubated for 1 hr. Development reagent (protease, 5 μL) is added for 1 hr prior to detection in a fluorescence microplate reader (Varioskan® Flash, ThermoFisher Scientific).
as §2

c-Src = c-Src (Homo sapiens (Human), UniProt P12931); assay: c-Src enzyme inhibition, Z-LYTE FRET; format: biochemical
Procedure: as §1, §3, §2

[3] = tested on: TNBS-induced colitis in mice; assay: TNBS-induced colitis in mice; format: in vivo; design: Ulcer grade / LP inflammation: scale not given here; settings: Experiment 1, 2.5 mg/kg oral BID, 2 days
Procedure: On Day 0 of the study TNBS (200 μL) is administered intra-colonically via a plastic catheter followed by BID dosing of the vehicle, reference or test compound for 2 or 4 days. During the study animals are weighed every day and stool observations are made and recorded as a score, based on stool consistency. At the time of sacrifice on Day 2 (or Day 4) the large intestine is removed and the length and weight recorded. Sections of the colon are taken for either MPO analysis to determine neutrophil infiltration or for histopathology involving scoring to determine disease severity.

[4] = IL-2, read-out: IC50 Values for Inhibition of Cytokine Release PBMCs IL-2

p38 MAPKα, sequence (Q16539 whole entry): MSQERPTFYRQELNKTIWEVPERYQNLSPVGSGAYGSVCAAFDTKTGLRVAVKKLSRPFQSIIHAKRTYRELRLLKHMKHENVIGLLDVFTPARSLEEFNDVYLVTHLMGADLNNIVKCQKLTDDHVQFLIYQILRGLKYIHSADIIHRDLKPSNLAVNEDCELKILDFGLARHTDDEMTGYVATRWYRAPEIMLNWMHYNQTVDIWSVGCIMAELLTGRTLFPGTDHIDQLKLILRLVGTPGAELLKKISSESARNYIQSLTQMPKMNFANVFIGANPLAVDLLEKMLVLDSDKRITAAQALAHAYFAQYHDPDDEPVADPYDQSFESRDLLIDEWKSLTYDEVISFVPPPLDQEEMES
c-Src, sequence (P12931 whole entry, looked up): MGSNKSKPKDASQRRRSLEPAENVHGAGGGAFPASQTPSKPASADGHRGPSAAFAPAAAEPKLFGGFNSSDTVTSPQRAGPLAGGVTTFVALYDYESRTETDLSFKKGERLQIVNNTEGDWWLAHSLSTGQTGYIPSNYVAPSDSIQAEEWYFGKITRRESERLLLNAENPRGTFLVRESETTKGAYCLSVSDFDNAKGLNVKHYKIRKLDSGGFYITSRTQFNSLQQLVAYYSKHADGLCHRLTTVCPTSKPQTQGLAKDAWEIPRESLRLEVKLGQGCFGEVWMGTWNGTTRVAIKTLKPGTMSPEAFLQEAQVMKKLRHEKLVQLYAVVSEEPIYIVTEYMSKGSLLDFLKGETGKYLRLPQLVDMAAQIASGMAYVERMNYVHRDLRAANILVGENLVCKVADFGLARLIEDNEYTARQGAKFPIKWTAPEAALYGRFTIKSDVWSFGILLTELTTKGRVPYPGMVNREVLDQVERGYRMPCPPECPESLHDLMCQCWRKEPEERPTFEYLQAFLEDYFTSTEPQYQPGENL
GSK3α, sequence (P49840 whole entry): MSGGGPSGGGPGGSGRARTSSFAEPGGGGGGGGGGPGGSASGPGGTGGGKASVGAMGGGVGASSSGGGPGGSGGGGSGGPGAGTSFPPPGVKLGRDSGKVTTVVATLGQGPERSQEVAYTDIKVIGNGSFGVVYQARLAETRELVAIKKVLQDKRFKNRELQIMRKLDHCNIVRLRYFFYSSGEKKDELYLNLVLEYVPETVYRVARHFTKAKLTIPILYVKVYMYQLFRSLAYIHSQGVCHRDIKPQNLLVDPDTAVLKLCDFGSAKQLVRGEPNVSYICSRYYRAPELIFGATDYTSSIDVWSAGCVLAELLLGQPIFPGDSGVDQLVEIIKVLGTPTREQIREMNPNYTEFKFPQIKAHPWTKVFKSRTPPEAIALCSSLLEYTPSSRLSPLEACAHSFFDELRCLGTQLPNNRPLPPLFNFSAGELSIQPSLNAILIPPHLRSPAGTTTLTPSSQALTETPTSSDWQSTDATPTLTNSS

Structure (SMILES) | IC50 (GSK3α) [nM] | IC50 (PBMCs [1]) [nM] | other results
C#CC(C)(C)c1cc(NC(=O)Nc2ccc(Oc3ccnc(Nc4cc(OCCN(C)C)ccn4)n3)c3ccccc23)n(-c2ccc(C)cc2)n1 [Example 11, 1-(4-((2-((4-(2-(Dimethylamino)ethoxy)pyridin-2-yl)amino)pyrimidin-4-yl)oxy)naphthalen-1-yl)-3-(3-(2-methylbut-3-yn-2-yl)-1-(p-tolyl)-1H-pyrazol-5-yl)urea] | > 10000 | 10.8 | 
C#CC(C)(C)c1cc(NC(=O)Nc2ccc(Oc3ccnc(Nc4cccc(OCCOCCOCCOC)n4)n3)c3ccccc23)n(-c2ccc(C)cc2)n1 [Example 17, 1-(4-((2-((6-(2-(2-(2-Methoxyethoxy)ethoxy)ethoxy)pyridin-2-yl)amino)pyrimidin-4-yl)oxy)naphthalen-1-yl)-3-(3-(2-methylbut-3-yn-2-yl)-1-(p-tolyl)-1H-pyrazol-5-yl)urea] | > 10000 | 30.4 | 
C#CC(C)(C)c1cc(NC(=O)Nc2ccc(Oc3ccnc(Nc4cc(C)c5[nH]ncc5c4)n3)c(Cl)c2Cl)n(-c2ccc(C)cc2)n1 [Example 9, 1-(2,3-Dichloro-4-((2-((7-methyl-1H-indazol-5-yl)amino)pyrimidin-4-yl)oxy)phenyl)-3-(3-(2-methylbut-3-yn-2-yl)-1-(p-tolyl)-1H-pyrazol-5-yl)urea] | > 10000 | 7.6 | 
C#CC(C)(C)c1cc(NC(=O)Nc2ccc(Oc3ccnc(Nc4cccc(OCCN5CCOCC5)n4)n3)c3ccccc23)n(-c2ccc(C)cc2)n1 [Example 16, 1-(3-(2-Methylbut-3-yn-2-yl)-1-(p-tolyl)-1H-pyrazol-5-yl)-3-(4-((2-((6-(2-morpholinoethoxy)pyridin-2-yl)amino)pyrimidin-4-yl)oxy)naphthalen-1-yl)urea] | > 10000 | 17.7 | IC50 (p38 MAPKα): 148 nM; IC50 (Syk): 348 nM; IC50 (c-Src): 21 nM
CCCC1O[C@@H]2C[C@H]3[C@@H]4CCC5=CC(=O)C=C[C@]5(C)[C@H]4[C@@H](O)C[C@]3(C)[C@]2(C(=O)CO)O1 (stereo partly shown) [Budesonide, reference compound] |  |  | LP inflammation ([3]; TNBS + Vehicle 3.9 ± 0.3): 2.5 ± 0.4; Ulcer grade ([3]; TNBS + Vehicle 4.0 ± 0.5): 2.9 ± 0.6

Now from value to molecule, other results behind:

IC50 (GSK3α) [nM] | Structure (SMILES) | IC50 (PBMCs [1]) [nM] | other results
539 | C#CC(C)(C)c1cc(NC(=O)Nc2ccc(Oc3ccnc(Nc4cc(OC)cc(C(=O)NCCN5CCOCC5)c4)n3)c3ccccc23)n(-c2ccc(C)cc2)n1 [Example 4, 3-Methoxy-5-((4-((4-(3-(3-(2-methylbut-3-yn-2-yl)-1-(p-tolyl)-1H-pyrazol-5-yl)ureido)-naphthalen-1-yl)oxy)pyrimidin-2-yl)amino)-N-(2-morpholinoethyl)benzamide] | 0.5 | 
> 10000 | C#CC(C)(C)c1cc(NC(=O)Nc2ccc(Oc3ccnc(Nc4ccccc4)c3)c3ccccc23)n(-c2ccc(C)cc2)n1 [Example 7, 1-(3-(2-Methylbut-3-yn-2-yl)-1-(p-tolyl)-1H-pyrazol-5-yl)-3-(4-((2-(phenylamino)pyridin-4-yl)oxy)naphthalen-1-yl)urea] | 4 | IC50 (p38 MAPKα): 271 nM; IC50 (PBMCs [2]; IFNγ, read-out: IC50 Values for Inhibition of Cytokine Release PBMCs IFNγ): 21.8 nM; IC50 (PBMCs [2]; [4]): 139 nM; IC50 (Syk): 185 nM; IC50 (c-Src): 81 nM
1760 | C#CC(C)(C)c1cc(NC(=O)Nc2ccc(Oc3ccnc(Nc4cccc(OCCN(C)C)n4)n3)c3ccccc23)n(-c2ccc(C)cc2)n1 [Example 10, 1-(4-((2-((6-(2-(Dimethylamino)ethoxy)pyridin-2-yl)amino)pyrimidin-4-yl)oxy)naphthalen-1-yl)-3-(3-(2-methylbut-3-yn-2-yl)-1-(p-tolyl)-1H-pyrazol-5-yl)urea] | 1.7 | IC50 (p38 MAPKα): 46 nM; IC50 (PBMCs [2]; [4]): 7.1 nM
602 | C#CC(C)(C)c1cc(NC(=O)Nc2ccc(Oc3ccnc(Nc4cccc(OCCN5CCOCC5)c4)n3)c3ccccc23)n(-c2ccc(C)cc2)n1 [Example 5, 1-(3-(2-Methylbut-3-yn-2-yl)-1-(p-tolyl)-1H-pyrazol-5-yl)-3-(4-((2-((3-(2-morpholinoethoxy)phenyl)amino)pyrimidin-4-yl)oxy)naphthalen-1-yl)urea] | 1 | 
2570 | C#CC(C)(C)c1cc(NC(=O)Nc2ccc(Oc3ccnc(Nc4cc(OC)cc(OCCN5CCOCC5)c4)n3)c3ccccc23)n(-c2ccc(C)cc2)n1 [Example 8, 1-(4-((2-((3-Methoxy-5-(2-morpholinoethoxy)phenyl)amino)pyrimidin-4-yl)oxy)-naphthalen-1-yl)-3-(3-(2-methylbut-3-yn-2-yl)-1-(p-tolyl)-1H-pyrazol-5-yl)urea] | 1.4 | IC50 (Syk): 31 nM; IC50 (c-Src): 22 nM
243 | C#CC(C)(C)c1cc(NC(=O)Nc2ccc(Oc3ccnc(Nc4cccc(OCCN(C)C)c4)n3)c3ccccc23)n(-c2ccc(C)cc2)n1 [Example 6, 1-(4-((2-((3-(2-(Dimethylamino)ethoxy)phenyl)amino)pyrimidin-4-yl)oxy)naphthalen-1-yl)-3-(3-(2-methylbut-3-yn-2-yl)-1-(p-tolyl)-1H-pyrazol-5-yl)urea] | 0.6 | 
